# Laboratory results published in patent publication US20170224662A1 (priority 2016, published 2017).
# Read-outs that look alike come from different tables or passages of the source.
# Key:
# Assay type in all cases: physicochemical
# physchem [1] = settings: for HPLC [CPMM] Concentration: diluted sample; for Actual [CPMM] Concentration: never saturated, stopped after 100 mg added
# Experimental: CPMM solubility was also evaluated in common solvents: water, methanol, ethanol, acetonitrile, and isopropanol. CPMM was weighed into 1.0 mL of each solvent and vortex-mixed. Only the water sample was saturated with CPMM; the other solvents never achieved saturation due to their high CPMM solubility. The screening was stopped after 100 mg of bulk CPMM had been added. Table 2 lists the ABP-700 solubility results in common solvents.
# physchem [2] = settings: thermodynamic from solid
# Experimental: A study was conducted to evaluate whether buffer concentration affects the maximum solubility of CPMM. […] The solutions were prepared and CPMM was added until saturation was achieved. The pH was controlled by continually titrating the solutions to pH 6 using NaOH. Saturation was determined to have been achieved after the pH had stabilized and undissolved remained in the vial after overnight shaking. Solubility was evaluated by taking two separate samplings over the course of two days to verify that saturation had been achieved. Solubility was measured when the formulations were at room temperature, as well as tested when the formulations were under sub-ambient conditions (2-8° C.) to evaluate whether the solubility would be affected at lower temperatures for long term storage at (2-8° C.).
# [3] = Binary excipient screening: stability of CPMM 1 mg/mL in IV-compatible excipient solutions in 10 mM pH 3 phosphate buffer; settings: for CPMM % Purity: t = 0
# Experimental: CPMM was evaluated for compatibility with excipients that are suitable for IV administration. A buffer solution (phosphate at pH 3) was selected as the diluent for excipient screening studies. […] CPMM was solubilized in each excipient solution at 1 mg/mL.
# While CPMM completely dissolved in the control sample within several minutes, many of the excipient solutions required overnight storage at 5° C. to solubilize the drug.
# Each excipient sample solution was placed on a two-week stability study at 25° C./60% relative humidity and 40° C./75% relative humidity, and analyzed for CPMM purity at t=0, 1, and 2 weeks by comparing individual samples to their respective excipient blank solution.
structure (smiles),measurement,setting,value
"COC(=O)C1(OC(=O)c2cncn2[C@H](C)c2ccccc2)CC1 [CPMM, 1-(methoxycarbonyl)cyclopropyl-1-[(1R)-1-phenylethyl]-1H-imidazole-5-carboxylate]",HPLC [CPMM] Concentration,"physchem [1]; Acetonitrile, dilution factor 166.67",474.2 µg/mL
same,Actual [CPMM] Concentration,physchem [1]; Acetonitrile,79034.9 µg/mL
same,HPLC [CPMM] Concentration,"physchem [1]; Ethanol, dilution factor 166.67",534.3 µg/mL
same,Actual [CPMM] Concentration,physchem [1]; Ethanol,89051.8 µg/mL
same,HPLC [CPMM] Concentration,"physchem [1]; Isopropanol, dilution factor 166.67",514.5 µg/mL
same,Actual [CPMM] Concentration,physchem [1]; Isopropanol,85751.7 µg/mL
same,HPLC [CPMM] Concentration,"physchem [1]; Methanol, dilution factor 166.67",503.2 µg/mL
same,Actual [CPMM] Concentration,physchem [1]; Methanol,83868.3 µg/mL
same,HPLC [CPMM] Concentration,"physchem [1]; Water, dilution factor 6.67",449.2 µg/mL
same,solubility thermodynamic,"physchem [1]; thermodynamic from solid, Water, saturated, read-out: Actual [CPMM] Concentration",3000 µg/mL
same,solubility,"physchem [2]; 2 °C, pH 6.02, aqueous with cosolvent or surfactant or cyclodextrin, 10% SBECD in 25 mM Citrate, 2-8° C./ambient RH, pH 6.02, read-out: CPMM Amount (maximum solubility)",5590 µg/mL
same,solubility,"physchem [2]; 2 °C, pH 6.05, aqueous with cosolvent or surfactant or cyclodextrin, 10% SBECD in 10 mM Citrate, 2-8° C./ambient RH, pH 6.05, read-out: CPMM Amount (maximum solubility)",5480 µg/mL
same,solubility,"physchem [2]; pH 5.96, aqueous buffer, 10 mM Citrate, RT/Ambient RH, pH 5.96, read-out: CPMM Amount (maximum solubility)",300 µg/mL
same,solubility,"physchem [2]; pH 5.98, aqueous buffer, 50 mM Citrate, RT/Ambient RH, pH 5.98, read-out: CPMM Amount (maximum solubility)",230 µg/mL
same,solubility,"physchem [2]; pH 5.98, aqueous with cosolvent or surfactant or cyclodextrin, 10% SBECD in 10 mM Citrate, RT/Ambient RH, pH 5.98, read-out: CPMM Amount (maximum solubility)",5470 µg/mL
same,solubility,"physchem [2]; pH 5.98, aqueous with cosolvent or surfactant or cyclodextrin, 10% SBECD in 25 mM Citrate, RT/Ambient RH, pH 5.98, read-out: CPMM Amount (maximum solubility)",5490 µg/mL
same,solubility,"physchem [2]; pH 5.99, aqueous with cosolvent or surfactant or cyclodextrin, 10% SBECD in 50 mM Citrate, RT/Ambient RH, pH 5.99, read-out: CPMM Amount (maximum solubility)",5680 µg/mL
same,solubility,"physchem [2]; pH 6, aqueous buffer, 25 mM Citrate, RT/Ambient RH, pH 6.00, read-out: CPMM Amount (maximum solubility)",280 µg/mL
same,solubility,"physchem [2]; pH 6, aqueous buffer, citrate solutions containing no SBECD, read-out: solubility",~300 µg/mL
same,solubility,"physchem [2]; pH 6, aqueous with cosolvent or surfactant or cyclodextrin, 10% SBECD solutions at all citrate concentrations, regardless of the condition, read-out: solubility",~5500 µg/mL
same,Change in CPMM % Purity,"[3]; Ascorbic Acid 0.5% in pH 3 buffer, 1 week 25° C./60% RH",−14.4%
same,Change in CPMM % Purity,"[3]; Ascorbic Acid 0.5% in pH 3 buffer, 1 week 40° C./75% RH",−31.6%
same,Change in CPMM % Purity,"[3]; Ascorbic Acid 0.5% in pH 3 buffer, 2 weeks 25° C./60% RH",−26.4%
same,Change in CPMM % Purity,"[3]; Ascorbic Acid 0.5% in pH 3 buffer, 2 weeks 40° C./75% RH",−49.8%
same,CPMM % Purity,[3]; Ascorbic Acid 0.5% in pH 3 buffer,97.6%
same,Change in CPMM % Purity,"[3]; Ascorbic Acid/Edetate Disodium Dihydrate 0.5%/0.05% in pH 3 buffer, 1 week 25° C./60% RH",−2.2%
same,Change in CPMM % Purity,"[3]; Ascorbic Acid/Edetate Disodium Dihydrate 0.5%/0.05% in pH 3 buffer, 1 week 40° C./75% RH",−9.8%
same,Change in CPMM % Purity,"[3]; Ascorbic Acid/Edetate Disodium Dihydrate 0.5%/0.05% in pH 3 buffer, 2 weeks 25° C./60% RH",−4.2%
same,Change in CPMM % Purity,"[3]; Ascorbic Acid/Edetate Disodium Dihydrate 0.5%/0.05% in pH 3 buffer, 2 weeks 40° C./75% RH",−17.8%
same,CPMM % Purity,[3]; Ascorbic Acid/Edetate Disodium Dihydrate 0.5%/0.05% in pH 3 buffer,99.4%
same,Change in CPMM % Purity,"[3]; Control: Water, 1 week 25° C./60% RH",−0.9%
same,Change in CPMM % Purity,"[3]; Control: Water, 1 week 40° C./75% RH",−3.4%
same,CPMM % Purity,[3]; Control: Water,99.4%
same,Change in CPMM % Purity,"[3]; Control: pH 3 Buffer, 1 week 25° C./60% RH",−1.6%
same,Change in CPMM % Purity,"[3]; Control: pH 3 Buffer, 1 week 40° C./75% RH",−5.3%
same,Change in CPMM % Purity,"[3]; Control: pH 3 Buffer, 2 weeks 25° C./60% RH",−2.6%
same,Change in CPMM % Purity,"[3]; Control: pH 3 Buffer, 2 weeks 40° C./75% RH",−9.2%
same,CPMM % Purity,[3]; Control: pH 3 Buffer,99.5%
same,Change in CPMM % Purity,"[3]; Dextrose 5% in pH 3 buffer, 1 week 25° C./60% RH",−1.5%
same,Change in CPMM % Purity,"[3]; Dextrose 5% in pH 3 buffer, 1 week 40° C./75% RH",−5.2%
same,Change in CPMM % Purity,"[3]; Dextrose 5% in pH 3 buffer, 2 weeks 25° C./60% RH",−2.5%
same,Change in CPMM % Purity,"[3]; Dextrose 5% in pH 3 buffer, 2 weeks 40° C./75% RH",−9.0%
same,CPMM % Purity,[3]; Dextrose 5% in pH 3 buffer,99.4%
same,Change in CPMM % Purity,"[3]; Ethanol 10% in pH 3 buffer, 1 week 25° C./60% RH",−1.1%
same,Change in CPMM % Purity,"[3]; Ethanol 10% in pH 3 buffer, 1 week 40° C./75% RH",−3.2%
same,Change in CPMM % Purity,"[3]; Ethanol 10% in pH 3 buffer, 2 weeks 25° C./60% RH",−3.1%
same,Change in CPMM % Purity,"[3]; Ethanol 10% in pH 3 buffer, 2 weeks 40° C./75% RH",−7.0%
same,CPMM % Purity,[3]; Ethanol 10% in pH 3 buffer,99.5%
same,Change in CPMM % Purity,"[3]; Glycerol 10% in pH 3 buffer, 1 week 25° C./60% RH",−1.3%
same,Change in CPMM % Purity,"[3]; Glycerol 10% in pH 3 buffer, 1 week 40° C./75% RH",−4.7%
same,Change in CPMM % Purity,"[3]; Glycerol 10% in pH 3 buffer, 2 weeks 25° C./60% RH",−3.6%
same,Change in CPMM % Purity,"[3]; Glycerol 10% in pH 3 buffer, 2 weeks 40° C./75% RH",−9.8%
same,CPMM % Purity,[3]; Glycerol 10% in pH 3 buffer,99.4%
same,Change in CPMM % Purity,"[3]; HPβCD 10% in pH 3 buffer, 1 week 25° C./60% RH",−0.4%
same,Change in CPMM % Purity,"[3]; HPβCD 10% in pH 3 buffer, 1 week 40° C./75% RH",−1.6%
same,Change in CPMM % Purity,"[3]; HPβCD 10% in pH 3 buffer, 2 weeks 25° C./60% RH",−0.6%
same,Change in CPMM % Purity,"[3]; HPβCD 10% in pH 3 buffer, 2 weeks 40° C./75% RH",−2.5%
same,CPMM % Purity,[3]; HPβCD 10% in pH 3 buffer,99.4%
same,Change in CPMM % Purity,"[3]; KCl 5% in pH 3 buffer, 1 week 25° C./60% RH",−1.3%
same,Change in CPMM % Purity,"[3]; KCl 5% in pH 3 buffer, 1 week 40° C./75% RH",−4.8%
same,Change in CPMM % Purity,"[3]; KCl 5% in pH 3 buffer, 2 weeks 25° C./60% RH",−2.2%
same,Change in CPMM % Purity,"[3]; KCl 5% in pH 3 buffer, 2 weeks 40° C./75% RH",−8.2%
same,CPMM % Purity,[3]; KCl 5% in pH 3 buffer,99.4%
same,Change in CPMM % Purity,"[3]; Lutrol F68 1% in pH 3 buffer, 1 week 25° C./60% RH",−1.6%
